In EP0093620A1, “Fungicidal N-phenylcarbamates” (priority 1982, dated 1983):

Legend:
[1] = tested on: drug-sensitive strain of Sphaerotheca fuliginea; conditions: for pest or weed control at 200 ppm: Podosphaera fuliginea, in Cucumis sativus, topical, 240 h, read-out: Prevention value when inoculated with drug-sensitive strain; for Prevention value when inoculated with drug-sensitive strain: 200 ppm active ingredient, cucumber seedlings, spray, 10 days after inoculation
Method: (§1) Protective activity test on powdery mildew of cucumber (Sphaerotheca fuliginea):-
(§2) A flower pot of 90 ml volume was filed with sandy soil, and seeds of cucumber (var: Sagami-hanjiro) were sowed therein. Cultivation was carried out in a greenhouse for 8 days. Onto the resulting seedlings having cotyledons, the test compound formulated in emulsifiable concentrate or wettable powder and diluted with water was sprayed at a rate of 10 ml per pot. Then, the seedlings were inoculated with a spore suspension of the drug-resistant or drug-sensitive strain of Sphaerotheca fuliginea by spraying and further cultivated in the greenhouse. Ten days thereafter, the infectious state of-the plants was observed.
(§3) The leaves examined were measured for a percentage of infected area and classified into the corresponding disease indices, 0, 0.5, 1, 2, 4:
(§4) The disease severity was calculated according to the following equation: [formula]
(§5) The prevention value was calculated according to the following equation: [formula]

[2] = tested on: drug-sensitive strain of Cercospora beticola; conditions: for pest or weed control at 200 ppm: Cercospora beticola, in Beta vulgaris, topical, 240 h, read-out: Prevention value when inoculated with drug-sensitive strain; for Prevention value when inoculated with drug-sensitive strain: 200 ppm active ingredient, sugarbeet seedlings, spray, 10 days
Method: as §3, §4, §5
(§6) Preventive effect on cercospora leaf spot of sugarbeet (Cercospora beticola):-A flower pot of 90 ml volume was filled with sandy soil, and seeds of sugarbeet (var: Detroit dark red) were sowed therein. Cultivation was carried out in a greenhouse for 20 days. Onto the resulting seedlings, the test compound formulated in emulsifiable concentrate or wettable powder and diluted with water was sprayed at a rate of 10 ml per pot. Then, the seedlings were inoculated with a spore suspension of the drug-resistant or drug-sensitive strain of Cercospora beticola by spraying. The pot was covered with a polyvinyl chloride sheet to make a condition of high humidity, and cultivation was continued in the greenhouse for 10 days.

[3] = tested on: drug-resistant strain of Cercospora beticola; conditions: for pest or weed control at 200 ppm: Cercospora beticola, in Beta vulgaris, topical, 240 h, read-out: Prevention value when inoculated with drug-resistant strain; for Prevention value when inoculated with drug-resistant strain: 200 ppm active ingredient, sugarbeet seedlings, spray, 10 days
Method: as §3, §4, §5, §6

[4] = tested on: drug-sensitive strain of Botrytis cinerea; assay: Preventive effect on gray mold of cucumber, drug-sensitive strain; conditions: 200 ppm active ingredient, cucumber seedlings, mycelial disks, 3 days
Method: as §3, §4, §5
(§7) Preventive effect on gray mold of cucumber (Botrytis cinerea):-
(§8) Plastic pots of 90 ml volume were filled with sandy soil, and seeds of cucumber (var: Sagami-hanjiro) were sowed therein. Cultivation was carried out in a greenhouse for 8 days to obtain cucumber seedlings expanding cotyledons. Onto the resulting seedlings, the test compound formulated in emulsifiable concentrate or wettable powder and diluted with water was sprayed at a rate of 10 ml per pot. After air-drying, the seedlings were inoculated with mycelial disks (5 mm in diameter) of the drug-resistant or drug-sensitive strain of Botrytis cinerea by putting them on the leaf surfaces. After the plants were infected by incubating under high humidity at 20°C for 3 days, the rates of disease severity were observed.

[5] = tested on: drug-resistant strain of Venturia nashicola; assay: Preventive effect on scab of pear, drug-resistant strain; conditions: 200 ppm active ingredient, pear seedlings, spray
Method: as §3, §4, §5
(§9) A plastic pot of 90 ml volume was filled with sandy soil, and seeds of pear (var: Chojuro) were sowed . therein. Cultivation was carried out in a greenhouse for 20 days. Onto the resulting seedlings, the test compound formulated in emulsifiable concentrate or wettable powder and diluted with water was sprayed at a rate of 10 ml per pot. Then, the seedlings were inoculated with a spore suspension of the drug-resistant or drug-sensitive strain of Venturia nashicola by spraying. The resulting plants were placed at 20°C under a condition of high humidity for 3 days and then at 20°C under irradiation with a fluorescent lamp for 20 days.

[6] = tested on: drug-resistant strain of Sphaerotheca fuliginea; conditions: for pest or weed control at 200 ppm: Podosphaera fuliginea, in Cucumis sativus, topical, 240 h, read-out: Prevention value when inoculated with drug-resistant strain; for Prevention value when inoculated with drug-resistant strain: 200 ppm active ingredient, cucumber seedlings, spray, 10 days after inoculation
Method: as §1, §2, §3, §4, §5

[7] = tested on: drug-sensitive strain of Venturia nashicola; assay: Preventive effect on scab of pear, drug-sensitive strain; conditions: 200 ppm active ingredient, pear seedlings, spray
Method: as §3, §4, §5, §9

[8] = tested on: drug-resistant strain of Botrytis cinerea; assay: Preventive effect on gray mold of cucumber, drug-resistant strain; conditions: 200 ppm active ingredient, cucumber seedlings, mycelial disks, 3 days
Method: as §3, §4, §5, §7, §8

Pyricularia oryzae = conditions: in vivo

Structure (SMILES) | pest or weed control at 200 ppm [1] [%] | pest or weed control at 200 ppm [2] [%] | pest or weed control at 200 ppm [3] [%] | Prevention value when inoculated with drug-sensitive strain [4] [%] | Prevention value when inoculated with drug-resistant strain [5] [%] | pest or weed control at 200 ppm [6] [%] | Prevention value when inoculated with drug-sensitive strain [7] [%] | Prevention value when inoculated with drug-resistant strain [8] [%] | Prevention value when inoculated with drug-sensitive strain [1] [%] | Prevention value when inoculated with drug-sensitive strain [2] [%] | Prevention value when inoculated with drug-resistant strain [3] [%] | Prevention value when inoculated with drug-resistant strain [6] [%] | Prevention value (Pyricularia oryzae) [%]
CCCCNC(=O)n1c(NC(=O)OC)nc2ccccc21 [A, Methyl 1-(butyl-carbamoyl)benz-imidazol-2-yl-carbamate] | 100 | 100 | 0 | 100 | 0 | 0 | 100 | 0 | – | – | – | – | –
O=C(Nc1cccc(Cl)c1)OCC#CCCl [Barban, 4-chloro-2-butynyl N-(3-chlorophenyl)carbamate] | 0 | 0 | 34 | – | – | 25 | – | – | – | – | – | – | –
COC(=O)Nc1nc2ccccc2[nH]1 [C, Methyl benzimidazol-2-ylcarbamate] | 100 | 100 | 0 | – | – | 0 | – | – | – | – | – | – | –
O=C(Nc1cccc(Cl)c1)OCCCl [CEPC] | – | – | – | – | – | – | – | – | 0 | 0 | 0 | 0 | –
C#CC(C)OC(=O)Nc1cccc(Cl)c1 (stereo not drawn) [Chlorbufam, 1-methyl-2-propynyl N-(3-chlorophenyl)carbamate] | 100 | 100 | 0 | – | – | 0 | – | – | – | – | – | – | –
CC(C)OC(=O)Nc1cccc(Cl)c1 [Chlorpropham, isopropyl N-(3-chlorophenyl)carbamate] | 0 | 0 | 0 | – | – | 0 | – | – | – | – | – | – | –
CCOc1ccc(NC(=O)OC(C)C)cc1CC [Compound No. 50, isopropyl N-(3-ethyl-4-ethoxyphenyl)carbamate] | 0 | 0 | 100 | 0 | 98 | 100 | 0 | 100 | – | – | – | – | –
CCOc1ccc(N(C(=O)OC(C)C)C(=O)c2ccccc2)cc1COC [Compound No. 134, isopropyl N-benzoyl-N-(3-methoxymethyl-4-ethoxyphenyl)carbamate] | – | – | – | 0 | – | – | – | 100 | – | – | – | – | –
COC(=O)NC(=S)Nc1ccccc1NC(=S)NC(=O)OC [E, 1,2-Bis(3-methoxy-carbonyl-2-thio-ureido)benzene] | 100 | 100 | 0 | 100 | 0 | 0 | 100 | 0 | – | – | – | – | –
CCOP(=O)(Sc1ccccc1)Sc1ccccc1 [Edifenphos] | – | – | – | – | – | – | – | – | – | – | – | – | 97
CC(C)OC(=O)Nc1ccccc1 [Propham, isopropyl N-phenylcarbamate] | 0 | 0 | 0 | – | – | 0 | – | – | – | – | – | – | –
COC(=O)Nc1ccc(Cl)c(Cl)c1 [Swep] | – | – | – | – | – | – | – | – | 0 | 0 | 0 | 0 | –
CCOc1ccc(NC(=O)OC(C)C)cc1COC [compound 77, isopropyl N-(3-methoxymethyl-4-ethoxyphenyl)carbamate] | 0 | 0 | 100 | 0 | 100 | 100 | 0 | 100 | – | – | – | – | –
